# Experimental data: US20040268437A1, “Method for biosynthesizing the serotonin derivatives in plants” (CHONNAM NATIONAL UNIVERSITY, priority 2003, published 2004)
# How the values were obtained:
# [1] = system: transgenic rice plants (T14) over-expressing THT; assay: Soil treatment of transgenic rice T14 with inducers; serotonin derivative content in seeds; type: in vivo; details: for Content of serotonin derivative: Coumaroyl serotonin / Content of serotonin derivative: Feruloyl serotonin / Content of serotonin derivative: Total content: seeds of transgenic rice T14, inducer 100 μM to soil, 300,000 L/ha, 20 days
# Description: Among T2 generations of transgenic rice plants, T14 was transplanted in the soil, to which inducers for serotonin derivative biosynthesis were treated. After cultivation, the contents of serotonin derivatives in seeds of the transgenic rice plants were investigated.
# As inducers for serotonin derivative biosynthesis, tyramine, tryptamine, cinnamic acid, coumaric acid, caffeic acid and ferulic acid were used. Precisely, the inducers for serotonin derivative biosynthesis were dissolved in water, making each concentration 100 μM. Then, the solutions were added at the rate of 300,000 L/ha, to the soil where rice plants (about 40 days after heading) were growing. The plants were cultivated for 20 more days.
# The seeds of the plants cultivated above were collected, and the content of serotonin derivatives in them was investigated with the same method as used in the Example <1-1>, which was compared with that in seeds of wild type control rice plants.
# [2] = system: Hot pepper (Variety: Pungcheon); assay: Soil treatment of hot pepper with inducers; serotonin derivative content in sarcocarps by HPLC; type: in vivo; details: for Content of serotonin derivatives: Coumaroyl Serotonin / Content of serotonin derivatives: Feruloyl serotonin / Content of serotonin derivatives: Total content: inducer 100 μM to soil, 300,000 L/ha, 20 days; for Rank of inducers by serotonin derivatives produced: in words
# Description: Hot pepper (Variety: Pungcheon) was treated with inducers for serotonin derivative biosynthesis, followed by an examination of biosynthesis of serotonin derivatives.
# (§1) Particularly, inducers for serotonin derivative biosynthesis were prepared by dissolving tyramine, tryptamine, cinnamic acid, coumaric acid, caffeic acid and ferulic acid in water respectively to make each concentration 100 μM. And then the soil where rice plants (about 40 days after heading) had been growing was treated once with each inducer for serotonin derivative biosynthesis at the rate of 300,000 L/ha, followed by further cultivation for 20 days.
# The ripe sarcocarps of hot peppers were obtained to investigate the content of serotonin derivatives by the same method as used in the above Example <1-1>. Control group hot pepper was cultivated under the same condition as the experimental group hot pepper except the treatment with inducers for serotonin derivative biosynthesis.
# [3] = system: Rice plants (Variety: Nakdong); assay: Soil treatment of rice with inducers; serotonin derivative content in seeds by HPLC; type: in vivo; details: for Content of serotonin derivatives: Coumaroyl Serotonin / Content of serotonin derivatives: Feruloyl serotonin / Content of serotonin derivatives: Total content: inducer 100 μM to soil, 300,000 L/ha, 20 days; for Rank of inducers by serotonin derivatives produced: in words
# Description: Rice plants (Variety: Nakdong) having been cultivated in the rice field were treated with inducers for serotonin derivative biosynthesis and then biosynthesis of the serotonin derivatives was investigated.
# as §1, with “Inducers for serotonin” for “Particularly, inducers for serotonin”, “ferulic acid (Sigma-Aldrich, Korea) in water” for “ferulic acid in water”
# As a control group, rice plant which had been cultivated under the same conditions except the treatment with inducers for serotonin derivative biosynthesis was used.
# After harvesting rice, seeds of the rice were peeled to obtain brown rice. N-(hydroxycinnamoyl)-amines were extracted from 1 g of the brown rice by known method (Ishihara et al., Biosci. Biotechnol. Biochem. 64, 1025-1031, 2000), and then, HPLC was performed.
# Coumaroylserotonin and feruloylserotonin included in the extract of seeds of rice, treated with inducers for serotonin derivative biosynthesis, were quantified by HPLC using a standard substance synthesized by a well-known method (Villegas & Brodelius, Physiol. Plant. 78, 414-420, 1990).
# [4] = system: potato THT; details: cited from earlier work; for Use as amine substrate: potato THT
# [5] = system: recombinant hot pepper THT; details: cited from earlier work
# [6] = system: transgenic rice plants over-expressing THT; assay: Transgenic rice grown in medium with tyramine or coumaric acid; content in leaves and stems; type: in vivo; details: for Coumaroyl serotonin / Feruloyl serotonin / Total content of serotonin derivatives: medium with 50 μM tyramine, 2 weeks
# [7] = system: transgenic control rice; assay: Transgenic control rice (pGA1611 vector without THT gene) grown in medium with tyramine; content in leaves and stems; type: in vivo; details: Transgenic control (TC); medium with 50 μM tyramine, 2 weeks
# Description: In the meantime, transgenic control rice was prepared by transfecting rice plant with pGA1611 vector without hot pepper THT gene, and other preparation procedures for a control were the same as for an experimental group.
# (§2) It was investigated whether serotonin derivatives was biosynthesized in transgenic rice plants over-expressing THT when cultivated in a medium supplemented with serotonin inducers, tyramine or coumaric acid. T2 generations of the transgenic rice seeds were sown on MS medium (Duchefa Biochemie, Netherlands) supplemented with 50 μM of tyramine or coumaric acid, substrates of hot pepper THT enzyme, which were then further cultured in a sterilized condition with 12 hour light and 12 hour dark cycle. 2 weeks later, hydroxycinnamoyl amines were extracted from leaves of T2 generations of transgenic rice plants and wild type control rice plants, respectively, according to the same procedure as used in the above Example <1-1>, then, HPLC was performed for analysis.
# [8] = system: wild type control rice plants; assay: Wild-type control rice grown in medium with tyramine; content in leaves and stems; type: in vivo; details: Wild-type control (W); medium with 50 μM tyramine, 2 weeks
# Description: as §2
# [9] = Mean of transgenic rice lines T9-T17
compound,measurement,setting,value
"O=C(O)/C=C/c1ccc(O)c(O)c1 [Caffeic acid, caffeic acid]",Content of serotonin derivative: Coumaroyl serotonin,[1],368 ng/g seeds
same,Content of serotonin derivative: Feruloyl serotonin,[1],430 ng/g seeds
same,Content of serotonin derivative: Total content,[1],798 ng/g seeds
same,Content of serotonin derivatives: Coumaroyl Serotonin,[2],138 ng/1 g sarcocarps
same,Content of serotonin derivatives: Feruloyl serotonin,[2],162 ng/1 g sarcocarps
same,Content of serotonin derivatives: Total content,[2],300 ng/1 g sarcocarps
same,Content of serotonin derivatives: Coumaroyl Serotonin,[3],20 ng/1 g seed
same,Content of serotonin derivatives: Feruloyl serotonin,[3],23 ng/1 g seed
same,Content of serotonin derivatives: Total content,[3],43 ng/1 g seed
"O=C(O)C=Cc1ccccc1 [Cinnamic acid, cinnamic acid]",Content of serotonin derivative: Coumaroyl serotonin,[1],403 ng/g seeds
same,Content of serotonin derivative: Feruloyl serotonin,[1],406 ng/g seeds
same,Content of serotonin derivative: Total content,[1],809 ng/g seeds
same,Rank of inducers by serotonin derivatives produced,[2],produced most
same,Content of serotonin derivatives: Coumaroyl Serotonin,[2],214 ng/1 g sarcocarps
same,Content of serotonin derivatives: Feruloyl serotonin,[2],276 ng/1 g sarcocarps
same,Content of serotonin derivatives: Total content,[2],490 ng/1 g sarcocarps
same,Rank of inducers by serotonin derivatives produced,[3],produced most
same,Content of serotonin derivatives: Coumaroyl Serotonin,[3],48 ng/1 g seed
same,Content of serotonin derivatives: Feruloyl serotonin,[3],76 ng/1 g seed
same,Content of serotonin derivatives: Total content,[3],124 ng/1 g seed
"O=C(O)/C=C/c1ccc(O)cc1 [Coumaric acid, coumaric acid]",Content of serotonin derivative: Coumaroyl serotonin,[1],325 ng/g seeds
same,Content of serotonin derivative: Feruloyl serotonin,[1],599 ng/g seeds
same,Content of serotonin derivative: Total content,[1],924 ng/g seeds
same,Content of serotonin derivatives: Coumaroyl Serotonin,[2],120 ng/1 g sarcocarps
same,Content of serotonin derivatives: Feruloyl serotonin,[2],170 ng/1 g sarcocarps
same,Content of serotonin derivatives: Total content,[2],290 ng/1 g sarcocarps
same,Content of serotonin derivatives: Coumaroyl Serotonin,[3],15 ng/1 g seed
same,Content of serotonin derivatives: Feruloyl serotonin,[3],21 ng/1 g seed
same,Content of serotonin derivatives: Total content,[3],36 ng/1 g seed
"COc1cc(/C=C/C(=O)O)ccc1O [Ferulic acid, ferulic acid]",Content of serotonin derivative: Coumaroyl serotonin,[1],313 ng/g seeds
same,Content of serotonin derivative: Feruloyl serotonin,[1],537 ng/g seeds
same,Content of serotonin derivative: Total content,[1],850 ng/g seeds
same,Rank of inducers by serotonin derivatives produced,[2],second most
same,Content of serotonin derivatives: Coumaroyl Serotonin,[2],145 ng/1 g sarcocarps
same,Content of serotonin derivatives: Feruloyl serotonin,[2],230 ng/1 g sarcocarps
same,Content of serotonin derivatives: Total content,[2],375 ng/1 g sarcocarps
same,Rank of inducers by serotonin derivatives produced,[3],third most
same,Content of serotonin derivatives: Coumaroyl Serotonin,[3],33 ng/1 g seed
same,Content of serotonin derivatives: Feruloyl serotonin,[3],37 ng/1 g seed
same,Content of serotonin derivatives: Total content,[3],70 ng/1 g seed
"NCCc1c[nH]c2ccccc12 [Tryptamine, tryptamine]",Content of serotonin derivative: Coumaroyl serotonin,[1],376 ng/g seeds
same,Content of serotonin derivative: Feruloyl serotonin,[1],382 ng/g seeds
same,Content of serotonin derivative: Total content,[1],758 ng/g seeds
same,Use as amine substrate,[4],not used as a substrate
same,Content of serotonin derivatives: Coumaroyl Serotonin,[2],61 ng/1 g sarcocarps
same,Content of serotonin derivatives: Feruloyl serotonin,[2],79 ng/1 g sarcocarps
same,Content of serotonin derivatives: Total content,[2],140 ng/1 g sarcocarps
same,Content of serotonin derivatives: Coumaroyl Serotonin,[3],20 ng/1 g seed
same,Content of serotonin derivatives: Feruloyl serotonin,[3],28 ng/1 g seed
same,Content of serotonin derivatives: Total content,[3],48 ng/1 g seed
"NCCc1ccc(O)cc1 [Tyramine, tyramine]",Content of serotonin derivative: Coumaroyl serotonin,[1],314 ng/g seeds
same,Content of serotonin derivative: Feruloyl serotonin,[1],684 ng/g seeds
same,Content of serotonin derivative: Total content,[1],998 ng/g seeds
same,Rank of inducers by content of serotonin derivatives,"[1]; seeds of transgenic rice plants, in words",the highest
same,Increase of substrate specificity to tyramine,[4]; coumaroyl-CoA used as a substrate instead of feruloyl-CoA,more than 10 times
same,Maximum reaction velocity (Vmax) relative to octopamine,[5]; amine substrates,1.5 fold
same,Coumaroyl serotonin,[6]; [9],78 μg/g leaves and stems
same,Feruloyl serotonin,[6]; [9],96 μg/g leaves and stems
same,Total content of serotonin derivatives,[6]; [9],174 μg/g leaves and stems
same,Coumaroyl serotonin,[6]; Transgenic rice T9,24 μg/g leaves and stems
same,Feruloyl serotonin,[6]; Transgenic rice T9,24 μg/g leaves and stems
same,Total content of serotonin derivatives,[6]; Transgenic rice T9,48 μg/g leaves and stems
same,Coumaroyl serotonin,[6]; Transgenic rice T10,86 μg/g leaves and stems
same,Feruloyl serotonin,[6]; Transgenic rice T10,114 μg/g leaves and stems
same,Total content of serotonin derivatives,[6]; Transgenic rice T10,200 μg/g leaves and stems
same,Coumaroyl serotonin,[6]; Transgenic rice T13,224 μg/g leaves and stems
same,Feruloyl serotonin,[6]; Transgenic rice T13,200 μg/g leaves and stems
same,Total content of serotonin derivatives,[6]; Transgenic rice T13,424 μg/g leaves and stems
same,Coumaroyl serotonin,[6]; Transgenic rice T14,46 μg/g leaves and stems
same,Feruloyl serotonin,[6]; Transgenic rice T14,78 μg/g leaves and stems
same,Total content of serotonin derivatives,[6]; Transgenic rice T14,124 μg/g leaves and stems
same,Coumaroyl serotonin,[6]; Transgenic rice T16,50 μg/g leaves and stems
same,Feruloyl serotonin,[6]; Transgenic rice T16,70 μg/g leaves and stems
same,Total content of serotonin derivatives,[6]; Transgenic rice T16,120 μg/g leaves and stems
same,Coumaroyl serotonin,[6]; Transgenic rice T17,36 μg/g leaves and stems
same,Feruloyl serotonin,[6]; Transgenic rice T17,92 μg/g leaves and stems
same,Total content of serotonin derivatives,[6]; Transgenic rice T17,128 μg/g leaves and stems
same,Coumaroyltyramine and feruloyltyramine in the extract,"[6]; transgenic rice in medium with 50 μM tyramine or coumaric acid, HPLC",neither coumaroyltyramine nor feruloyltyramine
same,Rank of inducers by serotonin derivatives produced,[2],third most
same,Content of serotonin derivatives: Coumaroyl Serotonin,[2],150 ng/1 g sarcocarps
same,Content of serotonin derivatives: Feruloyl serotonin,[2],210 ng/1 g sarcocarps
same,Content of serotonin derivatives: Total content,[2],360 ng/1 g sarcocarps
same,Coumaroyl serotonin,[7],0 μg/g leaves and stems
same,Feruloyl serotonin,[7],1 μg/g leaves and stems
same,Total content of serotonin derivatives,[7],1 μg/g leaves and stems
same,Coumaroyl serotonin,[8],0 μg/g leaves and stems
same,Feruloyl serotonin,[8],1 μg/g leaves and stems
same,Total content of serotonin derivatives,[8],1 μg/g leaves and stems
same,Rank of inducers by serotonin derivatives produced,[3],second most
same,Content of serotonin derivatives: Coumaroyl Serotonin,[3],19 ng/1 g seed
same,Content of serotonin derivatives: Feruloyl serotonin,[3],54 ng/1 g seed
same,Content of serotonin derivatives: Total content,[3],73 ng/1 g seed
N=C(N)NCCCCN [agmatine],Use as amine substrate,[4],not used as a substrate
NCCCCCN [cadaverin],Use as amine substrate,[4],not used as a substrate
CC(C)(COP(=O)(O)OP(=O)(O)OC[C@H]1O[C@@H](n2cnc3c(N)ncnc32)[C@H](O)[C@@H]1OP(=O)(O)O)[C@@H](O)C(=O)NCCC(=O)NCCSC(=O)C=Cc1ccccc1 [cinnamoyl-CoA],Maximum reaction velocity (Vmax) relative to coumaroyl-CoA,[5]; hydroxycinnamic acid derivative substrates,15 times
NCCCCN [putricine],Use as amine substrate,[4],not used as a substrate
NCCCCNCCCN [spermidine],Use as amine substrate,[4],not used as a substrate
NCCCNCCCCNCCCN [spermine],Use as amine substrate,[4],not used as a substrate
